Tests used:
Avena sativa = test: Herbicidal post-emergence action (Example A, greenhouse); format: in vivo; settings: 320 g of a.i./ha
Procedure: (§1) Seeds of monocotyledonous and dicotyledonous weed and crop plants are placed into sandy loam in wood fibre pots, covered with soil and cultivated in a greenhouse under good growth conditions. 2-3 weeks after sowing, the test plants are treated at the one-leaf stage. The test compounds, formulated as wettable powders (WP), are, in various dosages with a water application rate of. 600 l/ha (converted), with 0.2% of wetting agent added, sprayed onto the green parts of the plants. After the test plants were kept in the greenhouse under optimum growth conditions for about 3 weeks, the effect of the preparations is rated visually in comparison to untreated controls (herbicidal effect in percent (%): 100% effect=the plants have died, 0% effect=like control plants).

Lolium = test: as above; format: in vivo; settings: 320 g of a.i./ha
Procedure: as §1

Setaria = test: as above; format: in vivo; settings: 320 g of a.i./ha
Procedure: as §1

Sinapis = test: as above; format: in vivo; settings: 320 g of a.i./ha, rated visually after about 3 weeks
Procedure: as §1

Stellaria = test: as above; format: in vivo; settings: 320 g of a.i./ha, rated visually after about 3 weeks
Procedure: as §1

[1] = tested on: larvae of the mustard beetle (Phaedon cochleariae); test: Phaedon test (spray treatment); format: in vivo; settings: 500 g/ha, spray treatment of Chinese cabbage discs
Procedure: [table] To produce a suitable preparation of active compound, 1 part by weight of active compound is mixed with the stated amounts of solvents and emulsifier, and the concentrate is diluted with emulsifier-containing water to the desired concentration. Discs of Chinese cabbage (Brassica pekinensis) are sprayed with a preparation of active compound of the desired concentration and, after they have dried, populated with larvae of the mustard beetle (Phaedon cochleariae).

[2] = tested on: greenhouse red spider mite (Tetranychus urticae); test: Tetranychus test (OP-resistant/spray treatment); format: in vivo; settings: 100 g/ha, OP-resistant, spray treatment of bean leaf discs
Procedure: To produce a suitable preparation of active compound, 1 part by weight of active compound is mixed with the stated amounts of solvents and emulsifier, and the concentrate is diluted with emulsifier-containing water to the desired concentration.
Discs of bean leaves (Phaseolus vulgaris) which are infested by all stages of the greenhouse red spider mite (Tetranychus urticae) are sprayed with a preparation of active compound of the desired concentration.
After the desired period of time, the activity in % is determined. 100% means that all spider mites have been killed; 0% means that none of the spider mites have been killed.

Summer barley = test: Herbicidal post-emergence action, use of safeners, vessel trials with cereals in the greenhouse (Example B); settings: in vivo
Procedure: (§2) Seeds of monocotyledonous and dicotyledonous weed and crop plants are placed into sandy loam in wood fibre pots or in plastic pots, covered with soil and cultivated in a greenhouse, during the vegetation period also outdoors outside of the greenhouse, under good growth conditions. 2-3 weeks after sowing, the test plants are treated at the one- to three-leaf stage. The test compounds, formulated as wettable powders (WP) or emulsifiable concentrates (EC) are, in various dosages with a water application rate of 300 l/ha (converted), with wetting agent (0.2 to 0.3%) added, sprayed onto the plants and the surface of the soil. 3-4 weeks after the treatment of the test plants, the effect of the preparations is rated visually in comparison to untreated controls (herbicidal effect in percent (%): 100% effect=the plants have died, 0% effect=like control plants). […]

Summer wheat = test: as above; settings: in vivo
Procedure: as §2

[3] = rated visually after about 3 weeks
[4] = rated visually after about 3 weeks (second table)

SMILES | herbicidal effect in percent, Avena sativa (Avena sativa; [3]) | herbicidal effect in percent, Lolium (Lolium; [3]) | herbicidal effect in percent, Setaria (Setaria; [3]) | herbicidal effect in percent, Avena sativa (Avena sativa; [4]) | herbicidal effect in percent, Lolium (Lolium; [4]) | herbicidal effect in percent, Setaria (Setaria; [4]) | herbicidal effect in percent, Sinapis (Sinapis) | further results
CCc1cc(C)cc(C)c1C1=C(O)C(C)N(CC)C1=O (centres unmarked) [Example I-a-1] | 80% | 100% | 90% |  |  |  |  | 
CCc1cc(C)cc(C)c1C1=C(OC(=O)C(C)C)C(C)(C)NC1=O [Example I-b-2] |  |  |  | 100% | 100% | 100% | 70% | herbicidal effect in percent, Stellaria (Stellaria): 80%
CCc1cc(C)cc(C)c1C1=C(OC(=O)C(C)C)C(C)(C2CC2)NC1=O (centres unmarked) [Example I-b-10] |  |  |  |  |  |  |  | Kill rate in % after 5 d [1]: 100%; Kill rate in % after 5 d [2]: 90%
CCc1cc(C)cc(C)c1C1=C(OC(=O)C(C)C)C(CC)(CC)NC1=O [Example I-b-18] |  |  |  |  |  |  |  | Kill rate in % after 5 d [1]: 100%; Kill rate in % after 5 d [2]: 100%
CCOC(=O)OC1=C(c2c(C)cc(C)cc2CC)C(=O)N(CC)C1C (centres unmarked) [Example I-c-1] | 90% | 100% | 100% |  |  |  |  | 
CCOC(=O)OC1=C(c2c(C)cc(C)cc2CC)C(=O)NC1(C)C(C)C (centres unmarked) [Example I-c-3] | 90% | 100% | 90% |  |  |  |  | 
CCc1cc(C)cc(C)c1C1=C(O)CN(C2CC2)C1=O [I-a-3] |  |  |  | 80% | 100% | 90% | 70% | 
CCc1cc(C)cc(C)c1C1=C(O)C(C)(C(C)C)NC1=O (centres unmarked) [I-a′-2] |  |  |  |  |  |  |  | Summer barley observed (%) (Summer barley): 20%; Summer wheat observed (%) (Summer wheat): 25%
CCc1cc(C)cc(C)c1C1=C(OC(=O)C(C)(C)C)C(C)(C(C)C)NC1=O (centres unmarked) [I-b-3] | 90% | 70% | 80% |  |  |  |  | 
CCOC(=O)OC1=C(c2c(C)cc(C)cc2CC)C(=O)NC1(C)C [I-c-2] |  |  |  | 100% | 100% | 100% | 70% | herbicidal effect in percent, Stellaria (Stellaria): 70%
